# Measurements from US20240376126A1, “PRMT5 INHIBITOR AND THE USE THEREOF” (CYTOSINLAB THERAPEUTICS CO., LTD., priority 2022, published 2024).
# Read-outs that look alike come from different tables or passages of the source.
# Columns and labels:
# [1] = test system: HCT116-MTAP-KO (MTAP null) cells; assay: Proliferation inhibition of HCT116 MTAP-KO cells in vitro (CellTiter Glo, 6 days); format: cell-based; conditions: read-out: Cell proliferation inhibition rate HCT116-MTAP null IC50 (nm)
# Text: (§1) Biological Test Example 2 Proliferation Inhibition of HCT116 and HCT116 MTAP-KO Cells In Vitro
# (§2) HCT116 cell line was purchased from the Chinese Academy of Sciences Cell Bank, and the MTAP gene was knocked out by CRISPR/Cas9 technology to obtain HCT116-MTAP-KO cell line.
# (§3) McCoy's 5A medium (Gibco, catalog No. 16600082), fetal bovine serum (Gibco, catalog No. 10099141C), penicillin-streptomycin double antibody (Gibco, catalog No. 15140122), pancreatic enzyme (Gibco, catalog No. 25200056), CellTiter Glo assay kit (Promega, catalog No. G7572), 384-well transparent flat-bottomed black walled cell culture plate (Corning, catalog No. 3764), ultra micro sampler (Tecan, catalog No. D300e), Multimode reader (Biotek, catalog No. SynergyHTX)
# (§4) • 1. Cell culture: HCT116 and HCT116-MTAP-KO cells were cultured in McCoy'5A medium+10% fetal bovine serum+1% penicillin-streptomycin double antibody; to ensure that they were always in the logarithmic growth phase and the cell viability greater than 95%. • 2. Compound concentration gradient preparation: The compound to be tested was added to a 384-well plate using an ultra micro sampler, starting from 30 μM (HCT116 cells) or 3 μM (HCT116-MTAP-KO cells), and diluted with DMSO at 3 times for a total of 9 concentrations and set up three duplicate wells. • 3. Treatment of cells with compounds: Trypsin-digested HCT116 or HCT116-MTAP-KO cell suspension was added to the 384-well plates spotted with the compounds to be tested at 40 μL per well, i.e., 100 cells per well, and the final concentration of DMSO was 0.4%. The cell culture plate was incubated at 37° C. in a 5% CO2 incubator for 6 days. • 4. Detection: 20 μL of CellTiter Glo reagent was added to each well of the cell culture plate and incubated at room temperature for 30 minutes. A multimode reader was used to detect the luminescence signal at […]. • 5. Data analysis:
# (§5) The data was fitted with GraphPad Prism 8.0 software using a four parameter inhibitor-reaction model to obtain the […] (half inhibitory concentration) of the test compounds.
# (§6) The first column represents cell proliferation inhibition rate HCT116 MTAP WT IC50 (nm), and the second column represents cell proliferation inhibition rate HCT116-MTAP null IC50 (nm): […]
# HCT116 MTAP WT cells = assay: Proliferation inhibition of HCT116 cells in vitro (CellTiter Glo, 6 days); format: cell-based; conditions: Homo sapiens, HCT-116, 144 h, read-out: Cell proliferation inhibition rate HCT116 MTAP WT IC50 (nm)
# Text: as §1, §2, §3, §4, §5, §6
"IC50 ([1]; HCT116-MTAP null, 144 h)",IC50 (HCT116 MTAP WT cells),IC50 [1],SMILES
< 100 nM,1000 to 10000 nM,–,CCN(Cc1nc2ccccn2c1C)C(=O)c1cc2c(cc1F)nc(N)c1cnn(C)c12 [Example 30]
< 100 nM,1000 to 10000 nM,–,CC(c1cn2ccccc2n1)N(C(=O)c1cc2c(cc1F)nc(N)c1cnn(C)c12)C12CC(C1)C2 (centres unmarked) [Example 31]
< 100 nM,1000 to 10000 nM,–,Cc1cc2cc(C(=O)N(Cc3cn4ccccc4n3)C(C)c3cccc(F)n3)ccc2nc1N (centres unmarked) [Example 32]
100 to 1000 nM,1000 to 10000 nM,–,CCN(C(=O)c1ccc2nc(N)c3c(c2c1)COC3C)C(C)c1cn2ccccc2n1 (centres unmarked) [Example 33]
< 100 nM,< 100 nM,–,CC(C)CN(Cc1cn2cc(C(F)(F)C(F)(F)F)ccc2n1)C(=O)c1cc2c(cc1F)nc(N)c1cnn(C)c12 [Example 34]
< 100 nM,1000 to 10000 nM,–,COCCOc1ccc2nc(CN(CC(C)C)C(=O)c3cc4c(cc3F)nc(N)c3cnn(C)c34)cn2c1 [Example 35]
< 100 nM,100 to 1000 nM,–,CC(C)CN(Cc1cn2cc(C(F)(F)F)ccc2n1)C(=O)c1cc2c(cc1F)nc(N)c1cnn(C)c12 [Example 36]
< 100 nM,1000 to 10000 nM,–,[2H]C([2H])([2H])N(Cc1cn2ccccc2n1)C(=O)c1cc2c(cc1F)nc(N)c1cnn(C)c12 [Example 37]
< 100 nM,1000 to 10000 nM,–,Cc1cc2cc(C(=O)N(Cc3cn4ccccc4n3)C(C)c3ncccn3)c(F)cc2nc1N (centres unmarked) [Example 38]
< 100 nM,1000 to 10000 nM,–,Cc1cc2cc(C(=O)N(Cc3cn4cc(C(F)(F)F)ccc4n3)C(C)c3ncccn3)c(F)cc2nc1N (centres unmarked) [Example 39]
< 100 nM,1000 to 10000 nM,–,CCN(C(=O)c1cc2cc(C)c(N)nc2cc1F)C(C)c1cn2ccccc2n1 (centres unmarked) [Example 40]
< 100 nM,1000 to 10000 nM,–,COCCN(Cc1cn2cc(C(F)(F)F)ccc2n1)C(=O)c1ccc2nc(N)c3c(c2c1)COC3C (centres unmarked) [Example 41]
< 100 nM,1000 to 10000 nM,–,"CC1OCc2c1c(N)nc1ccc(C(=O)N(Cc3cn4cc(C(F)(F)F)ccc4n3)c3cnn(C)c3)cc21 (centres unmarked) [Example 42, 4-Amino-3-methyl-N-(1-methyl-1H-pyrazol-4-yl)-N-((6-(trifluoromethyl)imidazolo[1,2-a]pyridin-2-yl)methyl)-1,3-dihydrofurano[3,4-c]quinolin-8-carboxamide]"
< 100 nM,1000 to 10000 nM,–,CC1OCc2c1c(N)nc1ccc(C(=O)N(Cc3cn4cc(C(F)(F)F)ccc4n3)C34CC(C3)C4)cc21 (centres unmarked) [Example 43]
< 100 nM,1000 to 10000 nM,–,COCC(C)N(Cc1cn2cc(C(F)(F)F)ccc2n1)C(=O)c1ccc2nc(N)c3c(c2c1)COC3C (centres unmarked) [Example 44]
< 100 nM,1000 to 10000 nM,–,COC1CC(N(Cc2cn3ccccc3n2)C(=O)c2cc3c(cc2F)nc(N)c2cnn(C)c23)C1 (centres unmarked) [Example 45]
< 100 nM,1000 to 10000 nM,–,CCN(Cc1cn2ccccc2n1)C(=O)c1ccc2nc(N)c3c(c2c1)CO[C@H]3C [Example 47]
1000 to 10000 nM,1000 to 10000 nM,–,C[C@H]1OCc2c1c(N)nc1ccc(C(=O)N(Cc3cn4cc(C(F)(F)F)ccc4n3)c3cnn(C)c3)cc21 [Example 48]
< 100 nM,1000 to 10000 nM,–,C[C@@H]1OCc2c1c(N)nc1ccc(C(=O)N(Cc3cn4cc(C(F)(F)F)ccc4n3)c3cnn(C)c3)cc21 [Example 49]
100 to 1000 nM,1000 to 10000 nM,< 100 nM,[2H]C([2H])([2H])N(Cc1cn2cc(C(F)(F)F)ccc2n1)C(=O)c1ccc2nc(N)c3c(c2c1)COC3C (centres unmarked) [Example 50]
100 to 1000 nM,1000 to 10000 nM,–,CCN(Cc1cn2cc(C(F)(F)F)ccc2n1)C(=O)c1ccc2nc(N)c3c(c2c1)COC3C (centres unmarked) [Example 51]
< 100 nM,1000 to 10000 nM,–,CC(C)CN(Cc1cn2cc(C(F)(F)F)ccc2n1)C(=O)c1ccc2nc(N)c3c(c2c1)COC3C (centres unmarked) [Example 52]

"IC50 ([1]; HCT116-MTAP null, 144 h)",IC50 (HCT116 MTAP WT cells),IC50 [1],SMILES
< 100 nM,1000 to 10000 nM,–,CC(C)CN(Cc1cn2ccccc2n1)C(=O)c1ccc2nc(N)c3c(c2c1)COC3C (centres unmarked) [Example 53]
100 to 1000 nM,1000 to 10000 nM,–,CC(C)CN(Cc1cn2ccccc2n1)C(=O)c1ccc2nc(N)c3c(c2c1)CO[C@@H]3C [Example 54]
< 100 nM,1000 to 10000 nM,–,CC(C)CN(Cc1cn2ccccc2n1)C(=O)c1ccc2nc(N)c3c(c2c1)CO[C@H]3C [Example 55]
100 to 1000 nM,1000 to 10000 nM,–,CC1OCc2c1c(N)nc1ccc(C(=O)N(Cc3cn4ccccc4n3)C34CC(C3)C4)cc21 (centres unmarked) [Example 56]
100 to 1000 nM,1000 to 10000 nM,–,CC1OCc2c1c(N)nc1ccc(C(=O)N(Cc3cn4ccccc4n3)c3cnn(C)c3)cc21 (centres unmarked) [Example 57]
< 100 nM,100 to 1000 nM,–,CC(C)CN(Cc1nc2ccccn2c1F)C(=O)c1cc2c(cc1F)nc(N)c1cnn(C)c12 [Example 58]
< 100 nM,1000 to 10000 nM,–,Cn1ncc2c(N)nc3cc(F)c(C(=O)N(Cc4cn5ccccc5n4)C45CC(F)(C4)C5)cc3c21 [Example 59]
< 100 nM,1000 to 10000 nM,–,COCCN(C(=O)c1cc2c(cc1F)nc(N)c1cnn(C)c12)C(C)c1cn2ccccc2n1 (centres unmarked) [Example 60]
< 100 nM,1000 to 10000 nM,–,Cn1ncc2c(N)nc3cc(F)c(C(=O)N(Cc4cn5ccccc5n4)C45CC(C#N)(C4)C5)cc3c21 [Example 61]
< 100 nM,1000 to 10000 nM,–,Cn1ncc2c(N)nc3cc(F)c(C(=O)N(Cc4cn5ccccc5n4)C45CC(C(F)(F)F)(C4)C5)cc3c21 [Example 62]
< 100 nM,1000 to 10000 nM,–,C[C@@H]1COC[C@H](c2cn3ccccc3n2)N1C(=O)c1ccc2nc(N)c3cnn(C)c3c2c1 [Example 63]
100 to 1000 nM,1000 to 10000 nM,–,CC1OCc2c1c(N)nc1ccc(C(=O)N3[C@H](C)COC[C@@H]3c3cn4ccccc4n3)cc21 (some centres unmarked) [Example 64]
100 to 1000 nM,1000 to 10000 nM,–,CC1OCc2c1c(N)nc1ccc(C(=O)N(Cc3cn4ccccc4n3)C(C)C(F)(F)F)cc21 (centres unmarked) [Example 65]
100 to 1000 nM,1000 to 10000 nM,–,CC1OCc2c1c(N)nc1ccc(C(=O)N(Cc3cn4ccccc4n3)CC(F)F)cc21 (centres unmarked) [Example 66]
100 to 1000 nM,1000 to 10000 nM,–,CC1OCc2c1c(N)nc1ccc(C(=O)N3C(C)COCC3c3cn4cc(C(F)(F)F)ccc4n3)cc21 (centres unmarked) [Example 67]
< 100 nM,1000 to 10000 nM,–,Cn1cc(N(Cc2cn3cc(C(F)(F)F)ccc3n2)C(=O)c2ccc3nc(N)c4c(c3c2)COC4)cn1 [Example 68]
100 to 1000 nM,1000 to 10000 nM,–,CCN(Cc1cn2ccccc2n1)C(=O)c1cc2c(cn1)nc(N)c1cnc(C)n12 [Example 69]
< 100 nM,1000 to 10000 nM,–,CC1OCc2c1c(N)nc1ccc(C(=O)N(Cc3nc4ccc(C(F)(F)F)cn4c3F)c3cnn(C)c3)cc21 (centres unmarked) [Example 71]
1000 to 10000 nM,1000 to 10000 nM,–,C[C@H]1OCc2c1c(N)nc1ccc(C(=O)N(Cc3cn4c(C(F)(F)F)cccc4n3)c3cnn(C)c3)cc21 [Example 72]
< 100 nM,1000 to 10000 nM,–,C[C@@H]1OCc2c1c(N)nc1ccc(C(=O)N(Cc3cn4c(C(F)(F)F)cccc4n3)c3cnn(C)c3)cc21 [Example 73]
100 to 1000 nM,1000 to 10000 nM,–,CC1OCc2c1c(N)nc1ccc(C(=O)N(Cc3cn4c(C(F)(F)F)cccc4n3)c3cnn(C)c3)cc21 (centres unmarked) [Example 74]
< 100 nM,1000 to 10000 nM,–,Cc1ccc2nc(CN(C(=O)c3ccc4nc(N)c5c(c4c3)COC5C)c3cnn(C)c3)cn2c1 (centres unmarked) [Example 75]
